The values that follow come from patent US20120135089A1, “E3 LIGASE INHIBITORS” (priority 2009, published 2012).

pEC50: −log10 of the molar value. Where “and” joins values, the source holds several entries; their conditions need not be identical. Identical values can stand only once. Like-named read-outs stand apart in the source and are kept apart here.

Assay [1] concerns p53-Ser15 phosphorylation. Put plainly: p53-Ser15 phosphorylation in RKO cells (Western blot). The settings on record: 6 hours. It counts as cell-based, human. As for the experimental part:
H1229 cells were transfected with Mdm2-Flag or remained untransfected. Cells were treated with 5 μg/ml (14 μM) MEL23, 5 μg/ml (15 μM) MEL24, 10 μM MG132, or 1 μg/ml of doxorubicin for 6 hours. Cells were lysed and analyzed by Western blotting using anti-Mdm2 and anti-actin antibodies. The lower band indicated with a star seen with the Mdm2 antibody is a non-specific band. NT indicates a no treatment control. […] RKO and RK0-E6 cells were treated with 5 μg/ml (14 μM) MEL23, 5 μg/ml (15 μM) MEL24, 10 μM MG132, 0.5 μg/ml doxorubicin, 0.5 μg/ml camptothecin or 25 μg/ml Etoposide for 6 hours. Cells were lysed and analyzed by Western blotting using anti-Mdm2, anti-p53, and anti-actin antibodies. The lower band indicated with a star seen with the anti-Mdm2 antibody is a non-specific band. […] RKO cells were treated with 5 μg/ml (14 μM) MEL23, 5 μg/ml (15 μM) MEL24, 10 μM MG132 or 2 μg/ml doxorubicin for 6 hours. Cells were lysed and analyzed by Western blotting using anti-Mdm2, anti-p53, anti-phospho-Ser15 p53, and anti-eiF4E antibodies.
Cells were seeded and treated with the indicated compound(s). Cells were lysed after each time point in a buffer of 50 mM TrisHCl pH 7.5, 200 mM NaCl, 0.5% NP-40, and 1 complete mini EDTA-free protease inhibitor cocktail tablet per 10 mL of buffer (Roche, Cat. No. 8360170). Protein content was quantified using a Biorad protein assay reagent (Bio-Rad Laboratories, Hercules, Calif., Cat. No. 500-0006). SDS sample buffer was added to the samples, and the mixture was boiled for 5 minutes. Equal amounts of protein were resolved on a 1D SDS-PAGE gel. Following separation proteins were transferred to nitrocellulose membrane, blocked with 5% milk, and then incubated with primary antibody overnight at 4° C. The membrane was incubated with secondary-HRP antibody for 45 minutes at room temperature and developed with SuperSignal West Pico Substrate (Pierce, Rockford, Ill., Cat. No. 34080).
Background: Immunoblotting shows a protein as a band on a membrane.

Assay [2] has as its target T1, Mdm2-luciferase fusion protein (Homo sapiens, UniProt Q00987).
T1 construct: Using full-length Mdm2 allowed for the presence of all domains of Mdm2; expressed in transfected cells
Description: cell-based Mdm2 auto-ubiquitination luminescence assay, Mdm2-luciferase cell line. The settings on record: for luminescence of the Mdm2-luciferase cell line: 384-well format. As for the experimental part: Cells were plated in 384-well format and treated with MG132 (2 hours) or cycloheximide (30 minutes). Steadylite luminescence buffer (PerkinElmer) was added and the relative luminescence levels determined on a Victor3 Plate Reader. Each graph represents the median of 5 replicates normalized to a no treatment control, and one standard deviation is shown. […] The graphs and EC50 values were determined using Graphpad PRISM®. […] U2OS, RKO, and HCT116 cells (p53 wild-type) were incubated with 5 μg/ml (14 μM) of MEL23, 5 μg/ml (15 μM) of MEL24, or 10 μM of MG132 for 6 hours. Cells were lysed and analyzed by Western blotting using anti-Mdm2, anti-p53, and anti-eIF4E antibodies. NT indicates a no treatment control. […] MCF7 cells (p53 wild-type) were incubated with 30 μg/ml (51 μM) etoposide alone or in combination with 50 μM AlIn or 5 μg/ml (14 μM) MEL23, or 5 μg/ml (15 μM) MEL24 for 16 hours. Cells were lysed and analyzed by Western blotting using anti-MDMX and anti-actin antibodies.
The Mdm2-luciferase cell line was seeded at 7,500 cells per well, in 384-well white plates (PerkinElmer, Waltham, Mass., Cat. No. 6007688), in 27 μl of media (DMEM with FBS and P/S). Assay plates with cells were incubated at 37° C. overnight to allow cells to adhere. After 24 hours, 2 μl from the ‘mother’ plate (4 mg/ml) was transferred to a ‘daughter plate’ containing 148 μl media in order to dilute the compound 1:75. Next, 3 μl from each well of the ‘daughter plates’ was added to triplicate assay plates for a final concentration of 5.33 μg/ml. Assay plates were incubated at 37° C. for 2 hours. Then the cells were lysed with the addition of 30 μl of luminescence buffer (PerkinElmer, Cat. No. 6016989), and the plates were incubated at room temperature for 30 minutes before being analyzed on a Victor3 Plate Reader (PerkinElmer) for luminescence. […] All repurchased compounds were tested in a 2-fold dilution series via the same protocol as the primary screening. All transfers were conducted using a BioMek (Beckman Coulter, Fullerton, Calif.). […] This was determined by comparing the negative control, no treatment, to the positive control, 10 μM MG132.
To identify Mdm2 E3 ligase inhibitors, a high-throughput cellular assay to measure changes in Mdm2 auto-ubiquitination and degradation was designed. This assay took advantage of the fact that Mdm2 can regulate itself in cells through ubiquitination and degradation (8). Two fusion proteins were constructed for the assay: (a) a wild-type Mdm2-luciferase fusion protein, which can auto-ubiquitinate and thereby target itself for degradation; and (b) a mutant Mdm2(C464A)-luciferase fusion protein. Both fusion proteins were constructed with luciferase N-terminal to Mdm2. The C464A mutation disrupts a metal binding site in the RING domain, thereby preventing Mdm2 E3 ligase activity (8). Small molecules that increase the luminescence of the Mdm2-luciferase fusion protein without increasing the luminescence of the Mdm2(C464A)-luciferase fusion protein are likely inhibiting Mdm2 E3 ligase activity or the proteasomal degradation of Mdm2. Alternatively, small molecules that increase the luminescence of both fusion proteins are likely affecting transcription, translation, or have a general cellular impact that is not dependent on the E3 ligase activity of Mdm2 or proteasomal degradation.

T1 sequence (Q00987 whole entry, the tested form may be a part): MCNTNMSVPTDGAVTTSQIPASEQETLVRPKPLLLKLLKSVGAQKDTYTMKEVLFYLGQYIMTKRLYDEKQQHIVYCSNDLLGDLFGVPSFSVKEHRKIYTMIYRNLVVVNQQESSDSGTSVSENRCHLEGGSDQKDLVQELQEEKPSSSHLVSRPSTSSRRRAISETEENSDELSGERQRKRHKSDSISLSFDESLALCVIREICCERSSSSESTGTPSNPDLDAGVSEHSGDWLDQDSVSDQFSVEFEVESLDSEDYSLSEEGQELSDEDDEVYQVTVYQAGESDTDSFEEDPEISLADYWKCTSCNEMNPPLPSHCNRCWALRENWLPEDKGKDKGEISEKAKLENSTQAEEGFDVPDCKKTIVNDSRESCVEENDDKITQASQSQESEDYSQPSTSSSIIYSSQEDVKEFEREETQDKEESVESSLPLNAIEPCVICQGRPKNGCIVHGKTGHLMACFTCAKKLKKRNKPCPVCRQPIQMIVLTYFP

By pEC50 is commonly meant −log10 of the EC50, conventionally taken in molar units. On to `CCCCn1c(=O)[nH]c(O)c(C2NCCc3c2[nH]c2ccccc32)c1=O` (stereo not drawn) [MEL23], for which the “phosphorylation of p53 at serine-15” value in assay [1] is on record as “lack of phosphorylation of p53 at serine-15”. Also, the “luminescence of the Mdm2-luciferase cell line” value in assay [2] was “increased the luminescence of the Mdm2-luciferase cell line to a similar level as with MG132 treatment”. Also, the pEC50 in assay [2] (EC50, Mdm2-luciferase cell line, 2 hours treatment) is 5.12.
Broadly, the EC50 is the concentration giving half of the maximal effect. On to `Cn1c(O)c(C2NCCc3c2[nH]c2ccccc32)c(=O)n(C)c1=O` (stereo not drawn) [MEL24], for which the “phosphorylation of p53 at serine-15” value in assay [1] is listed as “lack of phosphorylation of p53 at serine-15”. The “luminescence of the Mdm2-luciferase cell line” value in assay [2] was “increased the luminescence of the Mdm2-luciferase cell line to a similar level as with MG132 treatment”. For the same compound, the EC50 in assay [2] (Mdm2-luciferase cell line, 2 hours treatment, read-out: EC50 (converted)) was 9.19 µM and 9.2 µM.
